Laboratory results: patent publication US20050032766A1, “Use of estrogenic compounds as anti-fungal agents” (priority 2003, published 2005)

Legend:
Assay type in all cases: cell-based
[1] = system: C. albicans; assay: C. albicans colony counts with 17β-estradiol in presence and absence of 2ME2 (Example 3); conditions: 5 hours; for Number of Colonies treated with estradiol: 1 nM 17β-estradiol alone; for Number of Colonies treated with estradiol and 2ME2: 1 μM 2ME2 with 1 nM 17β-estradiol; for Percentage of Inhibition: 1 μM 2ME2 with 1 nM 17β-estradiol vs estradiol alone
Method: (§1) The ability of 3 μM 2ME2 to inhibit the growth of ten different strains of C. albicans was investigated. Nine of these strains were clinically isolated and maintained by interval of subculture with Sabouraouds dextrose agar and storage at 4° C.; the other strain was purchased from ATCC. Yeast cells were cultured with nitrogen broth devoid of mammalian steroid hormones in the presence and absence of 2ME2. At 5 and 12 hours after the addition of 2ME2, a small volume of control and treated cultures was drawn and plated on Sabouraouds dextrose agar plates. The plates were placed at 37° C. and the colonies counted 24 hours later. Table I illustrates that micromolar concentrations 2ME2 are able to suppress the growth of 9/10 strains of C. albicans tested here.
In a separate experiment, 1 nM 17β-estradiol was added to the cultures of C. albicans cells in the presence and absence of 1 μM 2ME2 and the number of colonies of yeast cells cultured for 5 hours with the above steroids were counted as previously described.

[2] = system: C. albicans; assay: Growth inhibition of C. albicans strains by 2ME2, colony counts at 5 and 12 hours (Example 1); conditions: for Number of Treated Colonies at 5 hrs / Number of Treated Colonies at 12 hrs / Percentage of Inhibition at 12 hrs: 3 μM 2ME2
Method: as §1

[3] = system: C. albicans; assay: Repeat of the growth inhibition test, colony counts after 5 hours of culture (Example 2)
Method: as §1
The experiment described in Example 1 was repeated with 4 of the above strains and 3 newly isolated C. albicans trains. The following counts were taken from yeast cultures grown for 5 hours in the nitrogen base media in the presence and absence of micromolar concentrations 2ME2.

[4] = strain 2, micromolar concentrations 2ME2
[5] = strain 5, micromolar concentrations 2ME2
[6] = strain 8, micromolar concentrations 2ME2
[7] = strain 10, micromolar concentrations 2ME2
[8] = strain 11, micromolar concentrations 2ME2
[9] = strain 12, micromolar concentrations 2ME2
[10] = strain ATCC, micromolar concentrations 2ME2

SMILES: C[C@]12CC[C@@H]3c4ccc(O)cc4CC[C@H]3[C@@H]1CC[C@@H]2O [estradiol, 17β-estradiol, reference compound]
- Number of Colonies treated with estradiol ([1]; strain 2): 58 ± 5
- Number of Colonies treated with estradiol ([1]; strain 5): 69 ± 13
- Number of Colonies treated with estradiol ([1]; strain 8): 48 ± 7
- Number of Colonies treated with estradiol ([1]; strain 10): 52 ± 2
- Number of Colonies treated with estradiol ([1]; strain 11): 80 ± 1
- Number of Colonies treated with estradiol ([1]; strain 12): 120
- Number of Colonies treated with estradiol ([1]; strain ATCC): 63 ± 8

SMILES: COc1cc2c(cc1O)CC[C@@H]1[C@@H]2CC[C@]2(C)[C@@H](O)CC[C@@H]12 [2ME2, 2-Methoxyestradiol]
- Number of Colonies treated with estradiol and 2ME2 ([1]; strain 2): 64 ± 2
- Percentage of Inhibition ([1]; strain 5): 43%
- Number of Colonies treated with estradiol and 2ME2 ([1]; strain 5): 39 ± 4
- Percentage of Inhibition ([1]; strain 8): 48%
- Number of Colonies treated with estradiol and 2ME2 ([1]; strain 8): 25 ± 3
- Percentage of Inhibition ([1]; strain 10): 56%
- Number of Colonies treated with estradiol and 2ME2 ([1]; strain 10): 23 ± 5
- Percentage of Inhibition ([1]; strain 11): 31%
- Number of Colonies treated with estradiol and 2ME2 ([1]; strain 11): 55 ± 6
- Percentage of Inhibition ([1]; strain 12): 53%
- Number of Colonies treated with estradiol and 2ME2 ([1]; strain 12): 56 ± 1
- Percentage of Inhibition ([1]; strain ATCC): 55%
- Number of Colonies treated with estradiol and 2ME2 ([1]; strain ATCC): 28 ± 12
- strains of C. albicans whose growth is suppressed ([2]; micromolar concentrations 2ME2, ten strains tested): 9/10
- Number of Treated Colonies at 5 hrs ([2]; strain 1): 16
- Number of Treated Colonies at 12 hrs ([2]; strain 1): 50
- Percentage of Inhibition at 12 hrs ([2]; strain 1): 57%
- Number of Treated Colonies at 5 hrs ([2]; strain 2): 51
- Number of Treated Colonies at 12 hrs ([2]; strain 2): >400
- Number of Treated Colonies at 5 hrs ([2]; strain 3): 14
- Number of Treated Colonies at 12 hrs ([2]; strain 3): 86
- Percentage of Inhibition at 12 hrs ([2]; strain 3): >78%
- Number of Treated Colonies at 5 hrs ([2]; strain 4): 17
- Number of Treated Colonies at 12 hrs ([2]; strain 4): 113
- Percentage of Inhibition at 12 hrs ([2]; strain 4): >72%
- Number of Treated Colonies at 5 hrs ([2]; strain 5): 14
- Number of Treated Colonies at 12 hrs ([2]; strain 5): 85
- Percentage of Inhibition at 12 hrs ([2]; strain 5): >79%
- Number of Treated Colonies at 5 hrs ([2]; strain 6): 32
- Number of Treated Colonies at 12 hrs ([2]; strain 6): 131
- Percentage of Inhibition at 12 hrs ([2]; strain 6): >67%
- Number of Treated Colonies at 5 hrs ([2]; strain 7): 13
- Number of Treated Colonies at 12 hrs ([2]; strain 7): 148
- Percentage of Inhibition at 12 hrs ([2]; strain 7): >63%
- Number of Treated Colonies at 5 hrs ([2]; strain 8): 14
- Number of Treated Colonies at 12 hrs ([2]; strain 8): 98
- Percentage of Inhibition at 12 hrs ([2]; strain 8): >75%
- Number of Treated Colonies at 5 hrs ([2]; strain 9): 15
- Number of Treated Colonies at 12 hrs ([2]; strain 9): 90
- Percentage of Inhibition at 12 hrs ([2]; strain 9): >77%
- Number of Treated Colonies at 5 hrs ([2]; strain ATCC): 15
- Number of Treated Colonies at 12 hrs ([2]; strain ATCC): 67
- Percentage of Inhibition at 12 hrs ([2]; strain ATCC): 70%
- Percentage of Inhibition [3, 4]: 70%
- Treated Colonies [3, 4]: 26 ± 7
- Percentage of Inhibition [3, 5]: 41%
- Treated Colonies [3, 5]: 58 ± 7
- Percentage of Inhibition [3, 6]: 50%
- Treated Colonies [3, 6]: 59 ± 7
- Percentage of Inhibition [3, 7]: 0%
- Treated Colonies [3, 7]: 51 ± 19
- Percentage of Inhibition [3, 8]: 14%
- Treated Colonies [3, 8]: 74 ± 16
- Percentage of Inhibition [3, 9]: 50%
- Treated Colonies [3, 9]: 77 ± 12
- Percentage of Inhibition [3, 10]: 44%
- Treated Colonies [3, 10]: 36 ± 6
